assay: recombinant UMI read abundance after kanamycin selection (control-corrected) (log10(CPM+1)); higher = more efficient recombination; extreme values may be limits of the assay; sequences stand for … in AGTGCAGAGAAAATCGGCCAGTTTTCTCTGCCTGCAGTCCGCATGCCGTGGGACCCCTTGGGTTCTAACCTGTTGCCTAGATTTATGCAGCGGACTGCCTTTCTCCCAAAGTGATAAACCGG…AGGTTGGTTTCACT; site = the 11-nt donor
How it was run: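 The measure is log10(CPM+1) for recombinant UMIs. These were PCR-amplified across the donor–target junction and sequenced after Escherichia coli carrying a donor and donor-binding-loop pair library and a target plasmid with T7-inducible IS621 bridge recombinase was plated on IPTG (0.07 mM) plus kanamycin or unselected. CPM were averaged over two replicates and scaled by control-derived factors.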
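Note: IS621 bridge recombinase in Escherichia coli cells against a fixed T5 target plasmid.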

Row | Sequence | recombinant UMI read abundance (log10)
1 | GCTTGCTCATGGACCGGTTTTCCCGGTAATCCGTATTTGAT (site GCTTGCTCTAT) | 1.46
2 | GCTTGTCCATGGACCGGTTTTCCCGGTAATCCGTATTTGAT (site GCTTGACCTAT) | 0.00264
3 | GCTTGTCCATGGACCGGTTTTCCCGGTAATCCGTATTTGAT (site GCTTGCCCTAT) | 0.021
4 | GCTTGTCCATGGACCGGTTTTCCCGGTAATCCGTATTTGAT (site GCTTGGCCTAT) | 0
5 | GCTTGTCCATGGACCGGTTTTCCCGGTAATCCGTATTTGAT (site GCTTGTCCTAT) | 0
6 | GCTTGTTCATGGACCGGTTTTCCCGGTAATCCGTATTTGAA (site GCTTGTTCTTT) | 0.489
7 | GCTTGTTCATGGACCGGTTTTCCCGGTAATCCGTATTTGCT (site GCTTGTTCTAG) | 1.84
8 | GGAAACCCATGGACCGGTTTTCCCGGTAATCCGTATTTGCC (site GGAAACCCTGG) | 0
9 | GGAACGACATGGACCGGTTTTCCCGGTAATCCGTATTTGAT (site GGAACGACTAT) | 1.43
10 | GGAATGCCATGGACCGGTTTTCCCGGTAATCCGTATTTGCA (site GGAATGCCTTG) | 0
11 | GGACAGCCATGGACCGGTTTTCCCGGTAATCCGTATTTGCA (site GGACAGCCTTG) | 1.07
12 | GGACCATCATGGACCGGTTTTCCCGGTAATCCGTATTTGTC (site GGACCATCTGA) | 2.27
13 | GGACCGGCATGGACCGGTTTTCCCGGTAATCCGTATTTGGG (site GGACCGGCTCC) | 0.0163
14 | GGACTCACATGGACCGGTTTTCCCGGTAATCCGTATTTGTG (site GGACTCACTCA) | 0.00312
15 | GGACTTCCATGGACCGGTTTTCCCGGTAATCCGTATTTGAA (site GGACTTCCTTT) | 1.42
16 | GGAGACTCATGGACCGGTTTTCCCGGTAATCCGTATTTGGC (site GGAGACTCTGC) | 0.784
17 | GGAGACTCATGGACCGGTTTTCCCGGTAATCCGTATTTGTG (site GGAGACTCTCA) | 1.74
18 | GGAGAGGCATGGACCGGTTTTCCCGGTAATCCGTATTTGGT (site GGAGAGGCTAC) | 0.00324
19 | GGAGAGGCATGGACCGGTTTTCCCGGTAATCCGTATTTGGT (site GGAGCGGCTAC) | 0.00751
20 | GGAGAGGCATGGACCGGTTTTCCCGGTAATCCGTATTTGGT (site GGAGGGGCTAC) | 0.0239
21 | GGAGAGGCATGGACCGGTTTTCCCGGTAATCCGTATTTGGT (site GGAGTGGCTAC) | 0.0204
22 | GGAGATCCATGGACCGGTTTTCCCGGTAATCCGTATTTGCA (site GGAGATCCTTG) | 0
23 | GGAGATTCATGGACCGGTTTTCCCGGTAATCCGTATTTGTT (site GAAGATTCTAA) | 0
24 | GGAGATTCATGGACCGGTTTTCCCGGTAATCCGTATTTGTT (site GCAGATTCTAA) | 0
25 | GGAGATTCATGGACCGGTTTTCCCGGTAATCCGTATTTGTT (site GGAGATTCTAA) | 2.52

Row | Sequence | recombinant UMI read abundance (log10)
26 | GGAGATTCATGGACCGGTTTTCCCGGTAATCCGTATTTGTT (site GTAGATTCTAA) | 0
27 | GGAGCTTCATGGACCGGTTTTCCCGGTAATCCGTATTTGGC (site GGAGCTTCTGC) | 1.5
28 | GGAGGACCATGGACCGGTTTTCCCGGTAATCCGTATTTGGG (site AGAGGACCTCC) | 0
29 | GGAGGACCATGGACCGGTTTTCCCGGTAATCCGTATTTGGG (site CGAGGACCTCC) | 0.0177
30 | GGAGGACCATGGACCGGTTTTCCCGGTAATCCGTATTTGGG (site GGAGGACCTCC) | 0.00471
31 | GGAGGACCATGGACCGGTTTTCCCGGTAATCCGTATTTGGG (site TGAGGACCTCC) | 0.00615
32 | GGAGGTTCATGGACCGGTTTTCCCGGTAATCCGTATTTGAT (site GGAGGTTCTAT) | 1.87
33 | GGAGTAGCATGGACCGGTTTTCCCGGTAATCCGTATTTGTC (site GGAGTAGCTGA) | 1.98
34 | GGAGTGGCATGGACCGGTTTTCCCGGTAATCCGTATTTGAT (site GGAGTGGCTAA) | 0.00289
35 | GGAGTGGCATGGACCGGTTTTCCCGGTAATCCGTATTTGAT (site GGAGTGGCTAC) | 0.0174
36 | GGAGTGGCATGGACCGGTTTTCCCGGTAATCCGTATTTGAT (site GGAGTGGCTAG) | 0
37 | GGAGTGGCATGGACCGGTTTTCCCGGTAATCCGTATTTGAT (site GGAGTGGCTAT) | 1.87
38 | GGAGTGGCATGGACCGGTTTTCCCGGTAATCCGTATTTGTT (site GGAGTGGCTAA) | 1.06
39 | GGAGTGGCATGGACCGGTTTTCCCGGTAATCCGTATTTGTT (site GGAGTGGCTAC) | 0.00283
40 | GGAGTGGCATGGACCGGTTTTCCCGGTAATCCGTATTTGTT (site GGAGTGGCTAG) | 1.76
41 | GGAGTGGCATGGACCGGTTTTCCCGGTAATCCGTATTTGTT (site GGAGTGGCTAT) | 0.767
42 | GGATAAACATGGACCGGTTTTCCCGGTAATCCGTATTTGCC (site GGATAAACTGG) | 2.49
43 | GGATAAACATGGACCGGTTTTCCCGGTAATCCGTATTTGCC (site GGATACACTGG) | 1.01
44 | GGATAAACATGGACCGGTTTTCCCGGTAATCCGTATTTGCC (site GGATAGACTGG) | 0
45 | GGATAAACATGGACCGGTTTTCCCGGTAATCCGTATTTGCC (site GGATATACTGG) | 0
46 | GGATACACATGGACCGGTTTTCCCGGTAATCCGTATTTGCC (site GGATAAACTGG) | 0
47 | GGATACACATGGACCGGTTTTCCCGGTAATCCGTATTTGCC (site GGATACACTGG) | 2.97
48 | GGATACACATGGACCGGTTTTCCCGGTAATCCGTATTTGCC (site GGATAGACTGG) | 0
49 | GGATACACATGGACCGGTTTTCCCGGTAATCCGTATTTGCC (site GGATATACTGG) | 0
50 | GGATAGACATGGACCGGTTTTCCCGGTAATCCGTATTTGCA (site GGATAGACTAG) | 0.763

Row | Sequence | recombinant UMI read abundance (log10)
51 | GGATAGACATGGACCGGTTTTCCCGGTAATCCGTATTTGCA (site GGATAGACTCG) | 0.831
52 | GGATAGACATGGACCGGTTTTCCCGGTAATCCGTATTTGCA (site GGATAGACTGG) | 0.112
53 | GGATAGACATGGACCGGTTTTCCCGGTAATCCGTATTTGCA (site GGATAGACTTG) | 2.79
54 | GGATAGACATGGACCGGTTTTCCCGGTAATCCGTATTTGCG (site GGATAGACTAG) | 2.19
55 | GGATAGACATGGACCGGTTTTCCCGGTAATCCGTATTTGCG (site GGATAGACTCG) | 2.55
56 | GGATAGACATGGACCGGTTTTCCCGGTAATCCGTATTTGCG (site GGATAGACTGG) | 1.52
57 | GGATAGACATGGACCGGTTTTCCCGGTAATCCGTATTTGCG (site GGATAGACTTG) | 2.13
58 | GGCAAGACATGGACCGGTTTTCCCGGTAATCCGTATTTGCA (site AGGAAGACTTG) | 0
59 | GGCAAGACATGGACCGGTTTTCCCGGTAATCCGTATTTGCA (site GGCAAGACTTG) | 2.62
60 | GGCAATCCATGGACCGGTTTTCCCGGTAATCCGTATTTGAG (site GGCAATCCTAT) | 0
61 | GGCAATCCATGGACCGGTTTTCCCGGTAATCCGTATTTGAG (site GGCAATCCTCT) | 0.41
62 | GGCAATCCATGGACCGGTTTTCCCGGTAATCCGTATTTGAG (site GGCAATCCTGT) | 0
63 | GGCAATCCATGGACCGGTTTTCCCGGTAATCCGTATTTGAG (site GGCAATCCTTT) | 0.0105
64 | GGCAATCCATGGACCGGTTTTCCCGGTAATCCGTATTTGGA (site GGCAATCCTTA) | 0
65 | GGCAATCCATGGACCGGTTTTCCCGGTAATCCGTATTTGGA (site GGCAATCCTTC) | 0
66 | GGCAATCCATGGACCGGTTTTCCCGGTAATCCGTATTTGGA (site GGCAATCCTTG) | 0
67 | GGCAATCCATGGACCGGTTTTCCCGGTAATCCGTATTTGGA (site GGCAATCCTTT) | 0.00891
68 | GGCACGACATGGACCGGTTTTCCCGGTAATCCGTATTTGCG (site GGCACGACTCG) | 0.903
69 | GGCACGCCATGGACCGGTTTTCCCGGTAATCCGTATTTGTA (site GACACGCCTTA) | 0.00602
70 | GGCACGCCATGGACCGGTTTTCCCGGTAATCCGTATTTGTA (site GCCACGCCTTA) | 0.006
71 | GGCACGCCATGGACCGGTTTTCCCGGTAATCCGTATTTGTA (site GGCACGCCTTA) | 0.523
72 | GGCACGCCATGGACCGGTTTTCCCGGTAATCCGTATTTGTA (site GTCACGCCTTA) | 0.00471
73 | GGCACGTCATGGACCGGTTTTCCCGGTAATCCGTATTTGTT (site GGAACGTCTAA) | 0.027
74 | GGCACGTCATGGACCGGTTTTCCCGGTAATCCGTATTTGTT (site GGCACGTCTAA) | 0.595
75 | GGCACGTCATGGACCGGTTTTCCCGGTAATCCGTATTTGTT (site GGGACGTCTAA) | 0.00471
